Experiment [1] can be described thus: Antioxidant activity assessed as galvinoxyl radical scavenging activity by measuring second order rate constant by UV-vis spectrometric analysis. The experiment is classed as functional.
Experiment [2] in a line: Antioxidant activity assessed as galvinoxyl radical scavenging activity by measuring increase in pseudo first-order rate constant UV-vis spectrometric analysis. The experiment is classed as functional.

In the case of `Cc1cc(-c2oc3cc(O)ccc3c(=O)c2O)c(C)c(O)c1O`, the K in experiment [1] is 1.58 ×10³ /M/s. In experiment [2], the Activity result is “Dose-dependent effect”.

`Cc1c(-c2oc3cc(O)ccc3c(=O)c2O)ccc(O)c1O`: the K in experiment [1] is 1.55 ×10² /M/s.

With `O=c1c(O)c(-c2ccc(O)c(O)c2)oc2cc(O)ccc12`, the K in experiment [1] is 7.58 ×10¹ /M/s.

Consider `Cc1cc(-c2oc3cc(O)ccc3c(=O)c2O)cc(O)c1O`, for which the K in experiment [1] stood at 1.66 ×10⁵ /M/s.

The values above are taken from ChEMBL document CHEMBL4480440, “Synthesis and radical-scavenging activity of C-methylated fisetin analogues” (Bioorg Med Chem, 2019).
